Laboratory results: patent US20200046625A1, “COMPOUNDS USEFUL FOR THE TREATMENT AND/OR CARE OF THE SKIN, HAIR, NAILS AND/OR MUCOUS MEMBRANES” (LUBRIZOL ADVANCED MATERIALS, INC., priority 2016, published 2020)
The star is where a group is joined. Palmitoyl = CCCCCCCCCCCCCCCC(=O)*; Myristoyl = CCCCCCCCCCCCCC(=O)*

Columns and labels:
[1] = system: primary human subcutaneous pre-adipocyte cells; assay: Reduction of lipid accumulation, AdipoRed fluorescent assay; type: cell-based; settings: 8 days of treatment, PGM2 = 0%, PDM2 basal control = 100%
Experimental: The reduction of the percentage of lipid accumulation in human pre-adipocyte cells in a complete differentiation medium (basal control) is studied by treatment of the cells with the peptides of the invention. Quantification of lipid accumulation is evaluated with AdipoRed™ Assay Reagent (Lonza). Human pre-adipocyte cells (Lonza) are seeded in quadruplicate (10.000 cells/well) on a 96-well plate and they are incubated on a complete growth medium (PGM2, Lonza) for 24 hours at […] in a water-saturated atmosphere composed of 95% air and 5% CO2. The differentiation of pre-adipocytes into adipocytes is induced by changing the complete growth medium (PGM2, Lonza) for the complete differentiation medium (PDM2, Lonza). The cells are treated with the peptides of the invention at different concentrations prepared in complete differentiation medium. Caffeine (Sigma) at 0.2 mg/ml in PDM2 medium is used as a negative control of the lipid accumulation in the cells. Caffeine is the most widely used anti-cellulite cosmetic agent. […] Manufacturer protocol is followed for the use of AdipoRed™ Assay Reagent (Lonza). In brief, the cells are washed and the reagent AdipoRed™ is added diluted (5/200). After being incubated for 15 minutes in darkness and at room temperature, the Relative Fluorescence Units (RFUs) are measured using a fluorescence plate reader (CLARIOstar™, BMG LABTECH), with excitation filter at 485 nm and emission filter at 572 nm. […] The results are calculated as the mean of all the independent experiments carried out in each case for each peptide and concentration assayed.

[2] = system: Nocturnin (CCRN4L) in primary human subcutaneous pre-adipocyte cells; assay: Relative level of nocturnin by ELISA, normalized with BCA total protein; type: cell-based; settings: for Nocturnin level with respect to basal condition (%): 6 days of treatment, mean of 3 independent experiments
Experimental: The decrease in the relative level of nocturnin protein in human pre-adipocytes, cells that form adipose tissue, in a complete differentiation medium (basal condition) is studied when treating the peptides of the invention.
Human pre-adipocytes are seeded (10,000 cells/well, 4 wells per condition) on a 96-well plate and incubated on a complete growth medium (PGM2, LONZA) for 24 hours at 37° C. at an atmosphere with a CO2 level of 5%.
After incubation, the cells are treated with the peptides at 0.1, 0.5 and 1 mg/ml and its respective vehicles prepared in a complete differentiation medium (PDM2, LONZA). After 6 days of treatment at an atmosphere with 37° C. and a 5% CO2 level, the nocturnin level is measured using an ELISA test, and the total protein concentration is measured using a BCA (Bicinchoninic Acid) assay. For each concentration, the ELISA results are normalized with the BCA results. […] The values represent the mean of 3 independent experiments.
The manufacturer protocol of the ELISA kit for Carbon Catabolite Repression 4 Like Protein (CCRN4L) (Uscn Life Science Inc) is followed. In brief, the cells are lysed and the cell extracts are incubated on a 96-well plate coated with an anti-body specific to CCRN4L. Afterwards, the wells are coated with an antibody specific to CCRN4L conjugated with Biotin. Next, the Avidin conjugated with the enzyme Horseradish Peroxidase (HRP) is added to the plate. Finally, 3,3′,5,5′-Tetramethylbenzidine substrate is added to the plate and a change in color is observed proportionally to the quantity of nocturnin in each concentration. Lastly, a sulfuric acid solution is added to stop the enzyme-substrate reaction and quantify the color change with an absorbance reader (CLARIOstar™, BMG LABTECH) at 450 and 570 nm.
The manufacturer protocol of the BCA Protein assay kit (Pierce) is followed. The total protein concentration of the lysed cells is measured via a colorimetric reaction using a protein standard. In brief, the standard and the samples are distributed onto 96-well plates. The plate is then incubated with the reagent of the kit and finally the change in color is measured with the absorbance reader (CLARIOstar, BMG LABTECH) at 570 nm.

Row | Compound | % Lipid Accumulation ([1]; 1 mg/ml) | also measured
1 | Cn1c(=O)c2c(ncn2C)n(C)c1=O [Caffeine, reference compound] | – | % Lipid Accumulation ([1]; 0.2 mg/ml in PDM2): 76.07%
2 | Ac-Trp-Val-Tyr-NH2 | 63.18% | –
3 | Ac-Tyr-Val-Tyr-NH2 | 20.81% | –
4 | H-Phe-Trp-Tyr-Val-Tyr-NH2 (H-FWYVY-NH2) | – | % Lipid Accumulation ([1]; 0.005 mg/ml): 55.99%
5 | H-Phe-Tyr-Val-Tyr-Phe-NH2 (H-FYVYF-NH2) | 64.31% | –
6 | H-Tyr-Ile-Phe-NH2 | 47.45% | –
7 | H-Tyr-Ile-Phe-NHC6H13 | 30.72% | –
8 | H-Tyr-Ile-Phe-NHC16H33 | 40.61% | –
9 | H-Tyr-Ile-Tyr-NH2 | 46.63% | –
10 | H-Tyr-Ile-Tyr-NHC6H13 | 52.82% | –
11 | H-Tyr-Ile-Tyr-NHC16H33 | 23.74% | –
12 | H-Tyr-Leu-Trp-NH2 | 62.42% | –
13 | H-Tyr-Met-Tyr-NH2 | 40.24% | –
14 | H-Tyr-Val-Trp-NH2 | 61.87% | –
15 | H-Tyr-Val-Tyr-NH2 | 15.65% | % Lipid Accumulation ([1]; 0.1 mg/ml): 32.65%; % Lipid Accumulation ([1]; 0.5 mg/ml): 18.60%; Nocturnin level with respect to basal condition (%) ([2]; 0.1 mg/mL): 76%; Nocturnin level with respect to basal condition (%) ([2]; 0.5 mg/mL): 62%; Nocturnin level with respect to basal condition (%) ([2]; 1 mg/mL): 48%; dose-response of nocturnin reduction (in words) ([2]; 0.1, 0.5 and 1 mg/ml): a dose-response relationship is observed
16 | H-Tyr-Val-Tyr-NHC6H13 | 30.79% | –
17 | H-Tyr-Val-Tyr-NHC16H33 | 50.12% | –
18 | H-Tyr-Val-Tyr-OH | 22.66% | % Lipid Accumulation ([1]; 0.1 mg/ml): 35.14%; % Lipid Accumulation ([1]; 0.5 mg/ml): 33.55%; Nocturnin level with respect to basal condition (%) ([2]; 0.1 mg/mL): 67%; Nocturnin level with respect to basal condition (%) ([2]; 0.5 mg/mL): 87%; Nocturnin level with respect to basal condition (%) ([2]; 1 mg/mL): 83%
19 | H-Tyr-Val-Tyr-Phe-NH2 (H-YVYF-NH2) | 86.68% | –
20 | H-Tyr-Val-Tyr-Phe-Trp-NH2 (H-YVYFW-NH2) | 76.47% | –
21 | H-Tyr-Val-Tyr-Trp-NH2 (H-YVYW-NH2) | 90.32% | –
22 | Myristoyl-Tyr-Val-Phe-NH2 | 37.77% | –
23 | Myristoyl-Tyr-Val-Tyr-NH2 | 12.40% | –
24 | Palmitoyl-Tyr-Leu-Tyr-NH2 | 25.42% | –
25 | Palmitoyl-Tyr-Leu-Tyr-OH | – | % Lipid Accumulation ([1]; 0.005 mg/ml): 79.98%
26 | Palmitoyl-Tyr-Val-Tyr-NH2 | – | % Lipid Accumulation ([1]; 0.1 mg/ml): 86.17%
